Reference: EP0006772A1, “Thieno and furopyridone derivatives, process for their preparation and medicinal preparations containing them” (OMNIUM FINANCIER AQUITAINE POUR L'HYGIENE ET LA SANTE - …, priority 1978, dated 1980)

These molecules were tested on agrégation plaquettaire à l'A.D.P. (assay: ADP-induced platelet aggregation in plasma of orally treated rats (ex vivo)). Settings: Rattus norvegicus, 100 mg/kg oral, 3 hours after treatment, versus control, 10 µM A.D.P., read-out: Pourcentage d'inhibition A.D.P.
Design: species or system rats de souche Wistar
Procedure: (§1) Chez des rats de souche Wistar, on effectue un prélèvement sanguin dans la veine jugulaire. A partir de ce sang citraté et après centrifugation, on reconstitue un plasma contenant 600 000 ± 20 000 plaquettes par mm^3, qui servira dans toutes les mesures d'agrégation.
(§2) On place 0,4 ml de plasma dans un tube siliconé pourvu d'une barre aimantée elle-même siliconée. Le tube est introduit dans un agrégomètre couplé à un appareil permettant d'enregistrer les variations de densité optique. Lorsque la transmission de la lumière a atteint une valeur stable, on introduit dans le tube 0,5 ml d'une solution contenant 10 µM d'A.D.P. (Adénosine-Di Phosphate).
(§3) L'agrégation des plaquettes provoque alors une augmentation de la transmission lumineuse suivie d'une diminution consécutive à la phase de désagrégation.
(§4) La variation maximale de densité optique ainsi déterminée caractérise l'intensité de l'agrégation.
(§5) Différents lots de 20 rats sont uiilisés, chaque lot recevant un dérivé à tester par la vcie orale, à la dose de 100 mg/kg de poids corporel. Les résultats obtenus au cours de ces 2 essais sont rapportés dans le Tableau I suivant qui indique le pourcentage d'inhibition de l'agrégation plaquettaire obtenu, par rapport au témoin, 3 heures après le traitement par le médicament de l'invention, dans le test de l'A.D.P. et au collagène.

In order of falling inhibition at 100 mg/kg:
1. Cc1ccc(-c2cc3sccc3c(=O)[nH]2)cc1 [dérivé 5, p-tolyl-6 thiéno(3,2-c)pyridone-4]  62.6%
2. Cc1cc2c(=O)[nH]c(-c3ccccc3)cc2s1 [dérivé 13, Méthyl-2 phényl-6 thiéno(3,2-c)pyridone-4]  61.5%
3. O=c1[nH]c(-c2ccc([N+](=O)[O-])cc2)cc2sccc12 [dérivé 10, p-nitrophényl-6 thiéno(3,2-c)pyridone-4]  60.4%
4. O=c1[nH]c(-c2ccccc2[N+](=O)[O-])cc2sccc12 [dérivé 9, o-nitrophényl-6 thiéno(3,2-c)pyridone-4]  59.1%

Each molecule was assayed on agrégation plaquettaire au collagène (assay: Collagen-induced platelet aggregation in plasma of orally treated rats (ex vivo)). Settings: Rattus norvegicus, 100 mg/kg oral, 3 hours after treatment, versus control, collagen (bovine tendon extract), read-out: Pourcentage d'inhibition Collagène.
Design: species or system rats de souche Wistar
Procedure: as §1, §2, §3, §4
La solution d'A.D.P. est remplacée par une solution de collagène (extrait de tendons bovins).
as §5

In order of rising inhibition at 100 mg/kg:
1. O=c1[nH]c(-c2ccc([N+](=O)[O-])cc2)cc2sccc12 [dérivé 10, p-nitrophényl-6 thiéno(3,2-c)pyridone-4]  90.2%
2. Cc1cc2c(=O)[nH]c(-c3ccccc3)cc2s1 [dérivé 13, Méthyl-2 phényl-6 thiéno(3,2-c)pyridone-4]  90.5%
3. O=c1[nH]c(-c2ccccc2[N+](=O)[O-])cc2sccc12 [dérivé 9, o-nitrophényl-6 thiéno(3,2-c)pyridone-4]  90.8%
4. Cc1ccc(-c2cc3sccc3c(=O)[nH]2)cc1 [dérivé 5, p-tolyl-6 thiéno(3,2-c)pyridone-4]  91.4%

Each molecule was assayed on oedème localisé provoqué par la carragénine (assay: Carrageenan-induced localised paw oedema). Settings: rat, 100 mg/kg oral (1 h before, at injection, 1 h and 2.5 h after), 1 h after carrageenan; read-out: pourcentage d'activité anti-inflammatoire Ière heure.
Assay type: in vivo
Procedure: Une solution de carragénine (0,1 ml) à 1 % est injectée dans les fléchisseurs métatarsiens de la patte postérieure droite du rat au temps O. Les animaux du lot traité reçoivent en outre, par la voie orale, 100 mg par kg du dérivé à tester respectivement 1 heure avant, en même temps que l'injection de l'agent phlogogène, puis 1 heure et 2 heures et demi après. Les mesures qui sont effectuées à l'aide du micromètre de ROCH aux temps 0, 1 heure, 2 heures, 3 heures et 5 heures après l'administration de la carragénine permettent de déterminer, en fonction du temps, le pourcentage d'activité anti-inflammatoire par comparaison avec le lot témoin.

In order of rising inhibition in vivo at 100 mg/kg:
1. O=c1[nH]c(-c2ccccc2[N+](=O)[O-])cc2sccc12 [dérivé 9, o-nitrophényl-6 thiéno(3,2-c)pyridone-4]  38%
2. Cc1cc2c(=O)[nH]c(-c3ccccc3)cc2s1 [dérivé 13, Méthyl-2 phényl-6 thiéno(3,2-c)pyridone-4]  38%
3. Cc1ccc(-c2cc3sccc3c(=O)[nH]2)cc1 [dérivé 5, p-tolyl-6 thiéno(3,2-c)pyridone-4]  38%
4. O=c1[nH]c(-c2ccc([N+](=O)[O-])cc2)cc2sccc12 [dérivé 10, p-nitrophényl-6 thiéno(3,2-c)pyridone-4]  41%

Same assay, conditions: rat, 100 mg/kg oral (1 h before, at injection, 1 h and 2.5 h after), 2 h after carrageenan; read-out: pourcentage d'activité anti-inflammatoire 2ème heure

In order of falling inhibition in vivo at 100 mg/kg:
1. O=c1[nH]c(-c2ccc([N+](=O)[O-])cc2)cc2sccc12 [dérivé 10, p-nitrophényl-6 thiéno(3,2-c)pyridone-4]  45%
2. Cc1cc2c(=O)[nH]c(-c3ccccc3)cc2s1 [dérivé 13, Méthyl-2 phényl-6 thiéno(3,2-c)pyridone-4]  42%
3. O=c1[nH]c(-c2ccccc2[N+](=O)[O-])cc2sccc12 [dérivé 9, o-nitrophényl-6 thiéno(3,2-c)pyridone-4]  41%
4. Cc1ccc(-c2cc3sccc3c(=O)[nH]2)cc1 [dérivé 5, p-tolyl-6 thiéno(3,2-c)pyridone-4]  41%

Same assay, conditions: rat, 100 mg/kg oral (1 h before, at injection, 1 h and 2.5 h after), 3 h after carrageenan; read-out: pourcentage d'activité anti-inflammatoire 3ème heure

In order of falling inhibition in vivo at 100 mg/kg:
1. O=c1[nH]c(-c2ccc([N+](=O)[O-])cc2)cc2sccc12 [dérivé 10, p-nitrophényl-6 thiéno(3,2-c)pyridone-4]  51%
2. Cc1cc2c(=O)[nH]c(-c3ccccc3)cc2s1 [dérivé 13, Méthyl-2 phényl-6 thiéno(3,2-c)pyridone-4]  47%
3. O=c1[nH]c(-c2ccccc2[N+](=O)[O-])cc2sccc12 [dérivé 9, o-nitrophényl-6 thiéno(3,2-c)pyridone-4]  46%
4. Cc1ccc(-c2cc3sccc3c(=O)[nH]2)cc1 [dérivé 5, p-tolyl-6 thiéno(3,2-c)pyridone-4]  46%

Same assay, conditions: rat, 100 mg/kg oral (1 h before, at injection, 1 h and 2.5 h after), 5 h after carrageenan; read-out: pourcentage d'activité anti-inflammatoire 5ème heure

In order of falling inhibition in vivo at 100 mg/kg:
1. O=c1[nH]c(-c2ccc([N+](=O)[O-])cc2)cc2sccc12 [dérivé 10, p-nitrophényl-6 thiéno(3,2-c)pyridone-4]  53%
2. Cc1ccc(-c2cc3sccc3c(=O)[nH]2)cc1 [dérivé 5, p-tolyl-6 thiéno(3,2-c)pyridone-4]  51%
3. O=c1[nH]c(-c2ccccc2[N+](=O)[O-])cc2sccc12 [dérivé 9, o-nitrophényl-6 thiéno(3,2-c)pyridone-4]  50%
4. Cc1cc2c(=O)[nH]c(-c3ccccc3)cc2s1 [dérivé 13, Méthyl-2 phényl-6 thiéno(3,2-c)pyridone-4]  50%

Each molecule was assayed on oedème généralisé à l'ovalbumine (assay: Ovalbumin-induced generalised oedema). Settings: po; rat, 100 mg/kg per os 1 h before and together with ovalbumin, 2 h after ovalbumin injection; read-out: Pourcentage d'activité anti-inflammatoire 2ème heure.
Assay type: in vivo
Procedure: Une injection intrapéritonéale simultanée de 1 ml d'ovalbumine et de 0,5 ml d'une solution aqueuse de bleu Evans à 1 % est effectuée sur le rat. D'autre part, on administre per os aux animaux du lot traité 100 mg/kg du dérivé à tester 1 heure avant et en même temps que l'ovalbumine. L'intensité du phénomène ainsi provoqué est notée par un chiffre allant de 1 à 5 suivant la progression du syndrome inflammatoire. On détermine ainsi la moyenne de l'intensité oedémateuse et le pourcentage de diminution de la réaction oedémateuse par rapport au témoin, en fonction du temps.
Les pourcentages d'activité anti-inflammatoire obtenus à la 2ème heure et 3ème heure après l'injection d'ovalbumine sont consignés dans le Tableau III suivant.

In order of rising inhibition in vivo at 100 mg/kg:
1. O=c1[nH]c(-c2ccccc2[N+](=O)[O-])cc2sccc12 [dérivé 9, o-nitrophényl-6 thiéno(3,2-c)pyridone-4]  46%
2. Cc1cc2c(=O)[nH]c(-c3ccccc3)cc2s1 [dérivé 13, Méthyl-2 phényl-6 thiéno(3,2-c)pyridone-4]  46%
3. O=c1[nH]c(-c2ccc([N+](=O)[O-])cc2)cc2sccc12 [dérivé 10, p-nitrophényl-6 thiéno(3,2-c)pyridone-4]  49%
4. Cc1ccc(-c2cc3sccc3c(=O)[nH]2)cc1 [dérivé 5, p-tolyl-6 thiéno(3,2-c)pyridone-4]  50%

Same assay, conditions: po; rat, 100 mg/kg per os 1 h before and together with ovalbumin, 3 h after ovalbumin injection; read-out: Pourcentage d'activité anti-inflammatoire 3ème heure

In order of falling inhibition in vivo at 100 mg/kg:
1. O=c1[nH]c(-c2ccc([N+](=O)[O-])cc2)cc2sccc12 [dérivé 10, p-nitrophényl-6 thiéno(3,2-c)pyridone-4]  55%
2. Cc1ccc(-c2cc3sccc3c(=O)[nH]2)cc1 [dérivé 5, p-tolyl-6 thiéno(3,2-c)pyridone-4]  55%
3. Cc1cc2c(=O)[nH]c(-c3ccccc3)cc2s1 [dérivé 13, Méthyl-2 phényl-6 thiéno(3,2-c)pyridone-4]  53%
4. O=c1[nH]c(-c2ccccc2[N+](=O)[O-])cc2sccc12 [dérivé 9, o-nitrophényl-6 thiéno(3,2-c)pyridone-4]  52%
